The target in the experiment is T1, HIV integrase (Human immunodeficiency virus type 1 group M subtype B, UniProt P12497, F1332H).
T1 construct: HIV integrase full length gene; made in house; host or cells: Escherichia coli BL21(DE3)
The experiment in a line: Determination of enzyme (HIV integrase) inhibitory activity (strand transfer, microtiter plate, absorbance at 450 nm). It is filed as biochemical, HIV (Human Immunodeficiency Virus (type 1)). To be noted: recombinant HIV integrase (F185H) expressed in E. coli; donor DNA on streptavidin plate, digoxigenin target DNA; 37° C.

Among the data in patent publication US8232401B2 (Japan Tobacco Inc., priority 2002, dated 2012) are IC50 values, retold here.

Broadly, the IC50 is the concentration that inhibits the measured activity by half.

Each structure is given as a SMILES string.

Take `COC(=O)Nn1cc(C(=O)O)c(=O)c2cc(Cc3cccc(Cl)c3Cl)ccc21` [Example 2-2, 6-(2,3-Dichlorobenzyl)-1-methoxycarbonylamino-4-oxo-1,4-dihydroquinoline-3-carboxylic acid]: the 50% inhibitory concentration (IC50) is 180 nM.
With `O=C(O)c1cn(C2CCCC2)c2ccc(Cc3cccc(Cl)c3Cl)cc2c1=O` [Example 3-13, 1-Cyclopentyl-6-(2,3-dichlorobenzyl)-4-oxo-1,4-dihydroquinoline-3-carboxylic acid] the figure was 29 nM; with `CS(=O)(=O)c1ccc(Cl)c(Cc2ccc3c(c2)c(=O)c(C(=O)O)cn3CCO)c1` [Example 4-1, 6-(2-Chloro-5-methanesulfonylbenzyl)-1-(2-hydroxyethyl)-4-oxo-1,4-dihydroquinoline-3-carboxylic acid], 860 nM.
Turning to `CC(C)Oc1cc(Cc2cccc(Cl)c2F)cc2c(=O)c(C(=O)O)cn([C@H](CO)C(C)C)c12` [Example 4-24, (S)-6-(3-Chloro-2-fluorobenzyl)-1-(1-hydroxymethyl-2-methylpropyl)-8-isopropyloxy-4-oxo-1,4-dihydroquinoline-3-carboxylic acid], the IC50 is 2.5 nM.
With `CC(C)Oc1cc2c(cc1Cc1cccc(Cl)c1F)c(=O)c(C(=O)O)cn2[C@H](CO)C1CCCCC1` [Example 4-40, (S)-6-(3-Chloro-2-fluorobenzyl)-1-(1-cyclohexyl-2-hydroxyethyl)-7-isopropyloxy-4-oxo-1,4-dihydroquinoline-3-carboxylic acid] the figure was 4.3 nM; with `CN(C)c1ccccc1Cc1ccc2c(c1)c(=O)c(C(=O)O)cn2CCO` [Example 3-8, 6-(2-Dimethylaminobenzyl)-1-(2-hydroxyethyl)-4-oxo-1,4-dihydroquinoline-3-carboxylic acid], 340 nM; with `O=C(O)c1cn(CCO)c2ccc(Cc3ccccc3OC(F)(F)F)cc2c1=O` [Example 1-93, 1-(2-Hydroxyethyl)-4-oxo-6-(2-trifluoromethyloxybenzyl)-1,4-dihydroquinoline-3-carboxylic acid], 370 nM.
The same measure for `O=C(O)c1cn(CCCCc2ccccc2)c2ccc(Cc3cccc(Cl)c3Cl)cc2c1=O` [Example 1-19, 6-(2,3-Dichlorobenzyl)-1-(4-phenylbutyl)-4-oxo-1,4-dihydroquinoline-3-carboxylic acid]: 81 nM; for `N#Cc1cc2c(cc1Cc1cccc(Cl)c1Cl)c(=O)c(C(=O)O)cn2CCO` [Example 3-27, 7-Cyano-6-(2,3-dichlorobenzyl)-1-(2-hydroxyethyl)-4-oxo-1,4-dihydroquinoline-3-carboxylic acid]: 75 nM.
The same measure for `CCc1ccccc1Cc1ccc2c(c1)c(=O)c(C(=O)O)cn2CCO` [Example 4-4, 6-(2-Ethylbenzyl)-1-(2-hydroxyethyl)-4-oxo-1,4-dihydroquinoline-3-carboxylic acid]: 550 nM.
Turning to `COc1c(Cc2cccc(Cl)c2Cl)ccc2c1c(=O)c(C(=O)O)cn2CCO` [Example 3-1, 6-(2,3-Dichlorobenzyl)-1-(2-hydroxyethyl)-5-methoxy-4-oxo-1,4-dihydroquinoline-3-carboxylic acid], the IC50 turned out to be 470 nM.
The same measure for `O=C(O)c1cn(CCO)c2ccc(Cc3ccccc3Cl)cc2c1=O` [Example 1-87, 6-(2-Chlorobenzyl)-1-(2-hydroxyethyl)-4-oxo-1,4-dihydroquinoline-3-carboxylic acid]: 140 nM.
Take `COc1c(Cc2cccc(Cl)c2F)cc2c(=O)c(C(=O)O)cn(CCO)c2c1OC` [Example 3-45, 6-(3-Chloro-2-fluorobenzyl)-7,8-dimethoxy-1-(2-hydroxyethyl)-4-oxo-1,4-dihydroquinoline-3-carboxylic acid]: the IC50 turned out to be 15 nM.
The same measure for `O=C(O)c1cn(CCO)c2ccc(Cc3ccccc3-c3ccccc3)cc2c1=O` [Example 1-86, 6-Biphenyl-2-ylmethyl-1-(2-hydroxyethyl)-4-oxo-1,4-dihydroquinoline-3-carboxylic acid]: 150 nM.
On to `O=C(O)c1cn(CC2CCCCC2)c2ccc(Cc3cccc(Cl)c3Cl)cc2c1=O` [Example 1-42, 1-Cyclohexylmethyl-6-(2,3-dichlorobenzyl)-4-oxo-1,4-dihydroquinoline-3-carboxylic acid], for which the IC50 worked out at 130 nM.
With `CC(C)Oc1cc2c(cc1Cc1cccc(Cl)c1F)c(=O)c(C(=O)O)cn2CCO` [Example 3-53, 6-(3-Chloro-2-fluorobenzyl)-1-(2-hydroxyethyl)-7-isopropyloxy-4-oxo-1,4-dihydroquinoline-3-carboxylic acid] the figure was 7.9 nM; with `O=C(O)c1cn(CC(F)(F)F)c2ccc(Cc3cccc(Cl)c3Cl)cc2c1=O` [Example 1-27, 6-(2,3-Dichlorobenzyl)-1-(2,2,2-trifluoroethyl)-4-oxo-1,4-dihydroquinoline-3-carboxylic acid], 76 nM.
The same measure for `CC(C)Oc1cc(Cc2cccc(Cl)c2F)cc2c(=O)c(C(=O)O)cn([C@H](CO)C(C)(C)C)c12` [Example 4-26, (S)-6-(3-Chloro-2-fluorobenzyl)-[2,2-dimethyl-1-(hydroxymethyl)propyl]-8-isopropyloxy-4-oxo-1,4-dihydroquinoline-3-carboxylic acid]: 1.5 nM.
Regarding `CSCn1cc(C(=O)O)c(=O)c2cc(Cc3cccc(Cl)c3Cl)ccc21` [Example 1-68, 6-(2,3-Dichlorobenzyl)-1-methylsulfanylmethyl-4-oxo-1,4-dihydroquinoline-3-carboxylic acid], the IC50 was 49 nM.
The same measure for `O=C(O)c1cn(Cc2cc3ccccc3s2)c2ccc(Cc3cccc(Cl)c3Cl)cc2c1=O` [Example 1-22, 1-Benzo[b]thiophen-2-ylmethyl-6-(2,3-dichlorobenzyl)-4-oxo-1,4-dihydroquinoline-3-carboxylic acid]: 110 nM.
With `Cn1cc(C(=O)O)c(=O)c2cc(Cc3cccc(Cl)c3Cl)ccc21` [Example 1-36, 6-(2,3-Dichlorobenzyl)-1-methyl-4-oxo-1,4-dihydroquinoline-3-carboxylic acid] the figure was 180 nM.
The same measure for `O=C(O)c1cn(CCO)c2ccc(Cc3cccc(Cl)c3Cl)cc2c1=O` [Example 1-63]: 20 nM.
As to `O=C(O)c1cn(CCO)c2c(NCCO)cc(Cc3cccc(Cl)c3F)cc2c1=O` [Example 3-78, 6-(3-Chloro-2-fluorobenzyl)-1-(2-hydroxyethyl)-8-(2-hydroxyethylamino)-4-oxo-1,4-dihydroquinoline-3-carboxylic acid], the IC50 stood at 16 nM.
With `NCCn1cc(C(=O)O)c(=O)c2cc(Cc3cccc(Cl)c3Cl)ccc21` [Example 1-46, 1-(2-Aminoethyl)-6-(2,3-dichlorobenzyl)-4-oxo-1,4-dihydroquinoline-3-carboxylic acid] the figure was 420 nM; with `O=C(O)c1cn(Cc2ccccc2-c2ccccc2)c2ccc(Cc3cccc(Cl)c3Cl)cc2c1=O` [Example 1-20, 1-Biphenyl-2-ylmethyl-6-(2,3-dichlorobenzyl)-4-oxo-1,4-dihydroquinoline-3-carboxylic acid], 690 nM.
The same measure for `COc1cc2c(cc1Cc1cccc(Cl)c1F)c(=O)c(C(=O)O)cn2CCO` [Example 3-4, 6-(3-Chloro-2-fluorobenzyl)-1-(2-hydroxyethyl)-7-methoxy-4-oxo-1,4-dihydroquinoline-3-carboxylic acid]: 11 nM.
With `O=C(O)c1cn([C@H](CO)CC2CCCCC2)c2ccc(Cc3cccc(Cl)c3F)cc2c1=O` [Example 4-22, (S)-6-(3-Chloro-2-fluorobenzyl)-1-[2-cyclohexyl-1-(hydroxymethyl)ethyl]-4-oxo-1,4-dihydroquinoline-3-carboxylic acid] the figure was 2.9 nM; with `CS(=O)(=O)NCCn1cc(C(=O)O)c(=O)c2cc(Cc3cccc(Cl)c3Cl)ccc21` [Example 1-3, 6-(2,3-Dichlorobenzyl)-1-(2-methanesulfonylaminoethyl)-4-oxo-1,4-dihydroquinoline-3-carboxylic acid], 360 nM.
In the case of `CSCCn1cc(C(=O)O)c(=O)c2cc(Cc3cccc(Cl)c3Cl)ccc21` [Example 1-32, 6-(2,3-Dichlorobenzyl)-1-(2-methylsulfanylethyl)-4-oxo-1,4-dihydroquinoline-3-carboxylic acid], the IC50 was found to be 68 nM.
The same measure for `O=C(O)c1cn(CCCCCO)c2ccc(Cc3cccc(Cl)c3Cl)cc2c1=O` [Example 1-34, 6-(2,3-Dichlorobenzyl)-1-(5-hydroxypentyl)-4-oxo-1,4-dihydroquinoline-3-carboxylic acid]: 350 nM; for `CCOc1cc(Cc2cccc(Cl)c2F)cc2c(=O)c(C(=O)O)cn([C@H](CO)C(C)C)c12` [Example 4-45, (S)-6-(3-Chloro-2-fluorobenzyl)-8-ethoxy-1-(1-hydroxymethyl-2-methylpropyl)-4-oxo-1,4-dihydroquinoline-3-carboxylic acid]: 3.4 nM; for `CC[C@@H](CO)n1cc(C(=O)O)c(=O)c2cc(Cc3cccc(Cl)c3F)ccc21` [Example 3-60, (S)-6-(3-Chloro-2-fluorobenzyl)-1-[1-(hydroxymethyl)propyl]-4-oxo-1,4-dihydroquinoline-3-carboxylic acid]: 5.5 nM.
For `CCOc1cc2c(cc1Cc1cccc(Cl)c1F)c(=O)c(C(=O)O)cn2[C@@H](C)CO` [Example 3-61, (S)-6-(3-Chloro-2-fluorobenzyl)-7-ethoxy-1-(2-hydroxy-1-methylethyl)-4-oxo-1,4-dihydroquinoline-3-carboxylic acid], the IC50 worked out at 7.6 nM.
With `CC(C)Oc1cc(Cc2cccc(Cl)c2F)cc2c(=O)c(C(=O)O)cn([C@@H](C)CO)c12` [Example 4-16, (S)-6-(3-Chloro-2-fluorobenzyl)-1-(2-hydroxy-1-methylethyl)-8-isopropyloxy-4-oxo-1,4-dihydroquinoline-3-carboxylic acid] the figure was 7.1 nM; with `O=C(O)c1cn(CCO)c2ccc(Cc3ccc(F)cc3Cl)cc2c1=O` [Example 1-51, 6-(2-Chloro-4-fluorobenzyl)-1-(2-hydroxyethyl)-4-oxo-1,4-dihydroquinoline-3-carboxylic acid], 180 nM.
